molecular target: T1, Avi-KRAS G12D (1-169) GppNHp/RAF1 RBD-3xFLAG (52-151) (Homo sapiens, UniProt P01116, G12D); assay: Raf1-KRAS G12D-GppNHP disruption HTRF assay (Biological Example 1); format: binding; conditions: KRAS G12D-GppNHp/RAF1 RBD HTRF
T1 construct: Avi-KRAS G12D (1-169)
Outline: (§1)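 Using HTRF, the loss of KRAS–effector RAF1 complex was quantified in 50 mM Tris pH 7.5 buffer with 100 mM NaCl and 0.1% BSA. The protein step and reagent step ran 1 h each at room temperature. Activity normalized with DMSO taken as 100%.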

T1 sequence (P01116 1-169 isoform P01116-2 G12D): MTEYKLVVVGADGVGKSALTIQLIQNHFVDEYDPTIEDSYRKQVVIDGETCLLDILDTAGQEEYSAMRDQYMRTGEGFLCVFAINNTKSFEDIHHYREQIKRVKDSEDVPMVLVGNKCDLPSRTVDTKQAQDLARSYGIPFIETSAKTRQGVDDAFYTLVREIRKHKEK

Compound	IC50 [nM]
CC(=O)N1C[C@H]2OCCN(c3nc(OC[C@@]45CCCN4C[C@H](F)C5)nc4c(F)c(-c5ccc(F)c6sc(N)c(C#N)c56)c(C(F)(F)F)cc34)[C@H]2C1 [Compound 480]	1000 to 10000
CC(=O)N1C[C@@H]2OCCN(c3nc(OC[C@@]45CCCN4C[C@H](F)C5)nc4c(F)c(-c5ccc(F)c6sc(N)c(C#N)c56)c(C(F)(F)F)cc34)[C@@H]2C1 [Compound 481]	100 to 1000
CCN(c1nc(OC[C@@]23CCCN2C[C@H](F)C3)nc2c(F)c(-c3ccc(F)c4sc(N)c(C#N)c34)c(C(F)(F)F)cc12)[C@H]1CC(=O)N(C)C1 [Compound 482]	100 to 1000
N#Cc1c(N)sc2c(F)ccc(-c3c(C(F)(F)F)cc4c(N5CCn6nc(C7CC7)cc6C5)nc(OC[C@@]56CCCN5C[C@H](F)C6)nc4c3F)c12 [Compound 483]	1000 to 10000
N#Cc1nnn2c1CN(c1nc(OC[C@@]34CCCN3C[C@H](F)C4)nc3c(F)c(-c4ccc(F)c5sc(N)c(C#N)c45)c(C(F)(F)F)cc13)CC2 [Compound 486]	100 to 1000
N#Cc1c(N)sc2c(F)ccc(-c3c(C(F)(F)F)cc4c(N5CCCN6C(=O)CC[C@H]6C5)nc(OC[C@@]56CCCN5C[C@H](F)C6)nc4c3F)c12 [Compound 487]	100 to 1000

molecular target: T2, Avi-KRAS G12R (1-169) GppNHp/RAF1 RBD-3xFLAG (52-151) (Homo sapiens, UniProt P01116, G12R); assay: Raf1-KRAS G12R-GppNHP disruption HTRF assay (Biological Example 1); format: binding; conditions: KRAS G12R-GppNHp/RAF1 RBD HTRF
T2 construct: Avi-KRAS G12R (1-169)
Outline: as §1

T2 sequence (P01116 1-169 isoform P01116-2 G12R): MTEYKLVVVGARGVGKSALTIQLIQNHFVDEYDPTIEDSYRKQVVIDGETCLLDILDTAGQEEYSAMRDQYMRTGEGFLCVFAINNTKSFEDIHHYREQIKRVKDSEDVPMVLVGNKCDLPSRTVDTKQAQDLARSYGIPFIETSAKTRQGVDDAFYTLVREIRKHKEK

Compound	IC50 [nM]
CC(=O)N1C[C@H]2OCCN(c3nc(OC[C@@]45CCCN4C[C@H](F)C5)nc4c(F)c(-c5ccc(F)c6sc(N)c(C#N)c56)c(C(F)(F)F)cc34)[C@H]2C1 [Compound 480]	1000 to 10000
CC(=O)N1C[C@@H]2OCCN(c3nc(OC[C@@]45CCCN4C[C@H](F)C5)nc4c(F)c(-c5ccc(F)c6sc(N)c(C#N)c56)c(C(F)(F)F)cc34)[C@@H]2C1 [Compound 481]	100 to 1000
CCN(c1nc(OC[C@@]23CCCN2C[C@H](F)C3)nc2c(F)c(-c3ccc(F)c4sc(N)c(C#N)c34)c(C(F)(F)F)cc12)[C@H]1CC(=O)N(C)C1 [Compound 482]	100 to 1000
N#Cc1c(N)sc2c(F)ccc(-c3c(C(F)(F)F)cc4c(N5CCn6nc(C7CC7)cc6C5)nc(OC[C@@]56CCCN5C[C@H](F)C6)nc4c3F)c12 [Compound 483]	> 10000
N#Cc1nnn2c1CN(c1nc(OC[C@@]34CCCN3C[C@H](F)C4)nc3c(F)c(-c4ccc(F)c5sc(N)c(C#N)c45)c(C(F)(F)F)cc13)CC2 [Compound 486]	100 to 1000
N#Cc1c(N)sc2c(F)ccc(-c3c(C(F)(F)F)cc4c(N5CCCN6C(=O)CC[C@H]6C5)nc(OC[C@@]56CCCN5C[C@H](F)C6)nc4c3F)c12 [Compound 487]	1000 to 10000

molecular target: T3, Avi-KRAS G12V (1-169) GppNHp/RAF1 RBD-3xFLAG (52-151) (Homo sapiens, UniProt P01116, G12V); assay: Raf1-KRAS G12V-GppNHP disruption HTRF assay (Biological Example 1); format: binding; conditions: KRAS G12V-GppNHp/RAF1 RBD HTRF
T3 construct: Avi-KRAS G12V (1-169)
Outline: as §1

T3 sequence (P01116 1-169 isoform P01116-2 G12V): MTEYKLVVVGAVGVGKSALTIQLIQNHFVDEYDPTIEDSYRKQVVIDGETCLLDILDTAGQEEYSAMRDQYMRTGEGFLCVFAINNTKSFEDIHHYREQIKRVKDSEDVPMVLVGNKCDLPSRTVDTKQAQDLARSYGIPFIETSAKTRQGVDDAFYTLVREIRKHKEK

Compound	IC50 [nM]
CC(=O)N1C[C@H]2OCCN(c3nc(OC[C@@]45CCCN4C[C@H](F)C5)nc4c(F)c(-c5ccc(F)c6sc(N)c(C#N)c56)c(C(F)(F)F)cc34)[C@H]2C1 [Compound 480]	1000 to 10000
CC(=O)N1C[C@@H]2OCCN(c3nc(OC[C@@]45CCCN4C[C@H](F)C5)nc4c(F)c(-c5ccc(F)c6sc(N)c(C#N)c56)c(C(F)(F)F)cc34)[C@@H]2C1 [Compound 481]	1000 to 10000
CCN(c1nc(OC[C@@]23CCCN2C[C@H](F)C3)nc2c(F)c(-c3ccc(F)c4sc(N)c(C#N)c34)c(C(F)(F)F)cc12)[C@H]1CC(=O)N(C)C1 [Compound 482]	100 to 1000
N#Cc1c(N)sc2c(F)ccc(-c3c(C(F)(F)F)cc4c(N5CCn6nc(C7CC7)cc6C5)nc(OC[C@@]56CCCN5C[C@H](F)C6)nc4c3F)c12 [Compound 483]	> 10000
N#Cc1nnn2c1CN(c1nc(OC[C@@]34CCCN3C[C@H](F)C4)nc3c(F)c(-c4ccc(F)c5sc(N)c(C#N)c45)c(C(F)(F)F)cc13)CC2 [Compound 486]	100 to 1000
N#Cc1c(N)sc2c(F)ccc(-c3c(C(F)(F)F)cc4c(N5CCCN6C(=O)CC[C@H]6C5)nc(OC[C@@]56CCCN5C[C@H](F)C6)nc4c3F)c12 [Compound 487]	1000 to 10000

molecular target: T4, Avi-KRAS WT (1-169) GppNHp/RAF1 RBD-3xFLAG (52-151) (Homo sapiens, UniProt P01116); assay: Raf1-KRAS WT-GppNHP disruption HTRF assay (Biological Example 1); format: binding; conditions: KRAS WT-GppNHp/RAF1 RBD HTRF
T4 construct: Avi-KRAS WT (1-169)
Outline: as §1

T4 sequence (P01116 1-169 isoform P01116-2): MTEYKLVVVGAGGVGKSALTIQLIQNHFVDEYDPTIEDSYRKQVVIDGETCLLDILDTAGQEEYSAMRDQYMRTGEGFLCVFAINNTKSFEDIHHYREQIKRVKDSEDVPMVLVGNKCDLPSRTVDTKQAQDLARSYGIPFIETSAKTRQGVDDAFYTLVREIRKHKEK

Compound	IC50 [nM]
CC(=O)N1C[C@H]2OCCN(c3nc(OC[C@@]45CCCN4C[C@H](F)C5)nc4c(F)c(-c5ccc(F)c6sc(N)c(C#N)c56)c(C(F)(F)F)cc34)[C@H]2C1 [Compound 480]	1000 to 10000
CC(=O)N1C[C@@H]2OCCN(c3nc(OC[C@@]45CCCN4C[C@H](F)C5)nc4c(F)c(-c5ccc(F)c6sc(N)c(C#N)c56)c(C(F)(F)F)cc34)[C@@H]2C1 [Compound 481]	100 to 1000
CCN(c1nc(OC[C@@]23CCCN2C[C@H](F)C3)nc2c(F)c(-c3ccc(F)c4sc(N)c(C#N)c34)c(C(F)(F)F)cc12)[C@H]1CC(=O)N(C)C1 [Compound 482]	100 to 1000
N#Cc1c(N)sc2c(F)ccc(-c3c(C(F)(F)F)cc4c(N5CCn6nc(C7CC7)cc6C5)nc(OC[C@@]56CCCN5C[C@H](F)C6)nc4c3F)c12 [Compound 483]	> 10000
N#Cc1nnn2c1CN(c1nc(OC[C@@]34CCCN3C[C@H](F)C4)nc3c(F)c(-c4ccc(F)c5sc(N)c(C#N)c45)c(C(F)(F)F)cc13)CC2 [Compound 486]	100 to 1000
N#Cc1c(N)sc2c(F)ccc(-c3c(C(F)(F)F)cc4c(N5CCCN6C(=O)CC[C@H]6C5)nc(OC[C@@]56CCCN5C[C@H](F)C6)nc4c3F)c12 [Compound 487]	100 to 1000

system: GP2d cells (KRAS G12D); assay: Cell-based pERK HTRF assay in GP2d cell (Biological Example 2); conditions: GP2d, GP2d (KRAS G12D) cells, pERK HTRF
Outline: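 GP2d (KRAS G12D) cells were plated in DMEM/10% FBS and treated the next day for 60 min with compounds. Dosing used 9-point half-log series starting at 1 μM or 100 nM in 0.25% DMSO. Lysates were read by HTRF pERK (d2/Eu cryptate antibodies) after 4–24 h at room temperature, with excitation at 320 nm and emission at 615 nm.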

Compound	IC50 [nM]
CC(=O)N1C[C@H]2OCCN(c3nc(OC[C@@]45CCCN4C[C@H](F)C5)nc4c(F)c(-c5ccc(F)c6sc(N)c(C#N)c56)c(C(F)(F)F)cc34)[C@H]2C1 [Compound 480]	< 100
CC(=O)N1C[C@@H]2OCCN(c3nc(OC[C@@]45CCCN4C[C@H](F)C5)nc4c(F)c(-c5ccc(F)c6sc(N)c(C#N)c56)c(C(F)(F)F)cc34)[C@@H]2C1 [Compound 481]	< 100
CCN(c1nc(OC[C@@]23CCCN2C[C@H](F)C3)nc2c(F)c(-c3ccc(F)c4sc(N)c(C#N)c34)c(C(F)(F)F)cc12)[C@H]1CC(=O)N(C)C1 [Compound 482]	< 100
N#Cc1c(N)sc2c(F)ccc(-c3c(C(F)(F)F)cc4c(N5CCn6nc(C7CC7)cc6C5)nc(OC[C@@]56CCCN5C[C@H](F)C6)nc4c3F)c12 [Compound 483]	< 100
N#Cc1nnn2c1CN(c1nc(OC[C@@]34CCCN3C[C@H](F)C4)nc3c(F)c(-c4ccc(F)c5sc(N)c(C#N)c45)c(C(F)(F)F)cc13)CC2 [Compound 486]	< 100
N#Cc1c(N)sc2c(F)ccc(-c3c(C(F)(F)F)cc4c(N5CCCN6C(=O)CC[C@H]6C5)nc(OC[C@@]56CCCN5C[C@H](F)C6)nc4c3F)c12 [Compound 487]	< 100

system: SW620 cells (KRAS G12V); assay: Cell-based pERK HTRF assay in SW620 cell (Biological Example 4); conditions: Homo sapiens, SW-620, SW620 (KRAS G12V) cells, pERK HTRF
Outline: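 Read-out: HTRF pERK signal (excitation 320 nm, emission 615 nm) from lysates of SW620 cells after 4 h compound exposure. Dose range was 9 points, half-log steps from 1 μM, in 0.25% DMSO; antibody incubation ran 4–24 h at room temperature.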

Compound	IC50 [nM]
CC(=O)N1C[C@H]2OCCN(c3nc(OC[C@@]45CCCN4C[C@H](F)C5)nc4c(F)c(-c5ccc(F)c6sc(N)c(C#N)c56)c(C(F)(F)F)cc34)[C@H]2C1 [Compound 480]	< 100
CC(=O)N1C[C@@H]2OCCN(c3nc(OC[C@@]45CCCN4C[C@H](F)C5)nc4c(F)c(-c5ccc(F)c6sc(N)c(C#N)c56)c(C(F)(F)F)cc34)[C@@H]2C1 [Compound 481]	100 to 1000
CCN(c1nc(OC[C@@]23CCCN2C[C@H](F)C3)nc2c(F)c(-c3ccc(F)c4sc(N)c(C#N)c34)c(C(F)(F)F)cc12)[C@H]1CC(=O)N(C)C1 [Compound 482]	< 100
N#Cc1c(N)sc2c(F)ccc(-c3c(C(F)(F)F)cc4c(N5CCn6nc(C7CC7)cc6C5)nc(OC[C@@]56CCCN5C[C@H](F)C6)nc4c3F)c12 [Compound 483]	< 100
N#Cc1nnn2c1CN(c1nc(OC[C@@]34CCCN3C[C@H](F)C4)nc3c(F)c(-c4ccc(F)c5sc(N)c(C#N)c45)c(C(F)(F)F)cc13)CC2 [Compound 486]	< 100
N#Cc1c(N)sc2c(F)ccc(-c3c(C(F)(F)F)cc4c(N5CCCN6C(=O)CC[C@H]6C5)nc(OC[C@@]56CCCN5C[C@H](F)C6)nc4c3F)c12 [Compound 487]	< 100
